Experimental data: US20240082125A1, “USE OF A SHORT CHAIN FATTY ACID AS ANTIDANDRUFF AGENT” (NANYANG TECHNOLOGICAL UNIVERSITY, priority 2020, published 2024)
“And” between values parts separate entries of the source, which are not always exact repeats. Equal entries are not always repeated.

Legend:
C. acnes ATCC 6919 [1] = assay: C. acnes growth assay, colony forming units; assay type: cell-based, Cutibacterium acnes
Procedure: (§1) M. restricta ATCC MYA-4611, S. epidermidis ATCC 12228, and C. acnes ATCC 6919 were purchased from ATCC. M. restricta was routinely cultured in modified Dixon (MD) medium (pH 6), composed of 36 g of Malt extract (Sigma 70167), 20 g of Dessicated Oxbile (Sigma 70168), 6 g of Bacto™ Peptone (BD 211677), 1% (v/v) Tween 40 (Sigma P1504), 0.2% (v/v) Oleic Acid (Fluka 75096), and 0.2% (v/v) Glycerol (Promega H5433) in 1 liter of dH2O. C. acnes and S. epidermidis were cultured in modified brain heart infusion (MBHI) medium (pH 7), containing 37 g of BHI base (Accumedia 7116B), 0.4% (v/v) of Tween-40 (Sigma P1504), 0.2% (v/v) of Oleic acid (Fluka 75096), and 0.2% (v/v) of Glycerol (Promega H5433) in 1 liter of dH2O. M. restricta and S. epidermidis were routinely grown under aerobic conditions, shaken at 200 rpm, and C. acnes was grown under anaerobic conditions. All organisms were grown at 33° C. Wherever required, media was supplemented with: sodium acetate (CH3COOH, Sigma Ref. 32319), sodium propionate ([…], Sigma Ref. P1880), sodium butyrate (CH3(CH2)2COOH, Sigma Ref. 303410), valeric acid (CH3(CH2)3COOH, Fluka Ref. 75054). For valeric acid, the pH in modified cell media was neutralized with NaOH (Sodium hydroxide, Sigma 283060).
(§2) M. restricta cells stored as glycerol stocks (30% glycerol in MD medium) were revived by plating on MD agar plates and incubated for 2-3 days at 33° C. A pre-culture was made from the lawn of cells grown on the agar plate. Cells from % of the plate was scrapped off, homogenized after suspending in 70 ml of MD medium in a 250 ml baffled erlenmeyer flask and incubated for 24 hours at 33° C. at 200 rpm. For experiments, 10^7 cell/ml was inoculated in fresh MD medium with or without the short chain fatty acids. Growth was monitored by measuring the cell density with SYTO 9 for up to 24 hours or 96 hours. C. acnes and S. epidermidis were inoculated into MBHI medium at starting cell density of OD600 0.05 and 0.25, respectively. Bacterial growth was measured by plating the serially diluted cultures on Brain Heart Infusion agar plates at different time points and colonies were counted after 72 hours for C. acnes and 24 hours for S. epidermidis.
(§3) Bacterial growth was quantified by plating the serially diluted cultures on Brain Heart Infusion agar plates at different time points and colonies were counted after 72 hours for C. acnes and 24 hours for Staphylococcus sp.
(§4) M. restricta ATCC MYA-4611, S. epidermidis ATCC 12228 and C. acnes ATCC 6919 were purchased from ATCC. M. restricta were routinely cultured in Modified Dixon (MD) medium (pH 6), composed of 36 g of Malt extract (Sigma 70167), 20 g of Dessicated Oxbile (Sigma 70168), 6 g of Bacto™ Peptone (BD 211677), 1% (v/v) Tween 40 (Sigma P1504), 0.2% (v/v) Oleic Acid (Fluka 75096), and 0.2% (v/v) Glycerol (Promega H5433) in 1 liter of dH2O. C. acnes and S. epidermidis were cultured in modified brain heart infusion (MBHI) medium (pH 7), containing 37 g of BHI base (Accumedia 7116B), 0.4% (v/v) of Tween-40 (Sigma P1504), 0.2% (v/v) of Oleic acid (Fluka 75096), and 0.2% (v/v) of Glycerol (Promega H5433) in 1 liter of dH2O. M. restricta and S. epidermidis were routinely grown under aerobic conditions, shaken at 200 rpm, and C. acnes was grown under anaerobic conditions. All organisms were grown at 33° C. Wherever required, media was supplemented with 50 mM of: sodium propionate (CH3CH2COOH, Sigma Ref. P1880), sodium butyrate (CH3(CH2)2COOH, Sigma Ref. 303410), valeric acid (CH3(CH2)3COOH, Fluka Ref. 75054). For valeric acid, the pH in modified cell media was neutralized with NaOH (Sodium hydroxide, Sigma 283060).
(§5) M. restricta cells stored as glycerol stocks (30% glycerol in MD medium) were revived by plating on MD agar plates and incubated for 2-3 days at 33° C. A pre-culture was made from the lawn of cells grown on the agar plate.

C. acnes ATCC 6919 [2] = assay: Co-culture assay: C. acnes growth with S. epidermidis biofilm in aerobic condition; assay type: cell-based, Cutibacterium acnes; settings: monitored 24, 48 and 72 hours, FIG. 8
Procedure: S. epidermidis ATCC 12228, and C. acnes ATCC 6919 were purchased from ATCC. C. acnes and S. epidermidis were cultured in modified brain heart infusion (MBHI) medium (pH 7), containing 37 g of BHI base (Accumedia 7116B), 0.4% (v/v) of Tween-40 (Sigma P1504), 0.2% (v/v) of Oleic acid (Fluka 75096), and 0.2% (v/v) of Glycerol (Promega H5433) in 1 liter of dH2O. S. epidermidis was routinely grown under aerobic conditions, shaken at 200 rpm, and C. acnes was grown under anaerobic conditions. All organisms were grown at 33° C. Wherever required, media was supplemented with: sodium propionate ([…], Sigma Ref. P1880),
C. acnes and S. epidermidis were inoculated in MBHI media at starting cell density of OD600 0.05 and 0.25 respectively. Bacterial growth was measured by plating the serially diluted cultures on Brain Heart Infusion agar plates at different time points and colonies were counted after 72 hours for C. acnes and 24 hours for S. epidermidis.
For co-cultures, equal volumes of exponentially growing cells of the two species were mixed at cell density of 10^5 cells per ml in 24-well glass bottom plates. Growth of each species in co-cultures was quantified by plating the culture suspension on agar medium. […]

[3] = test system: S. epidermidis ATCC 12228; assay: S. epidermidis growth assay, colony forming units; assay type: cell-based, Staphylococcus epidermidis
Procedure: as §1, §2, §3, §4, §5

[4] = test system: M. restricta ATCC MYA-4611; assay: M. restricta growth assay, total cell numbers by SYTO9 fluorescence; assay type: cell-based, Malassezia restricta
Procedure: as §1
M. restricta cells from 1 ml of the culture were harvested by centrifugation at 10,000×g for 5 minutes at room temperature. Cells were washed once, pelleted, and re-suspended in 0.9% NaCl solution. Equal volumes of the above cell suspension and SYTO 9 working stock (3 ul SYTO 9 component of the Live/Dead BacLight bacterial viability kit, ThermoFisher Scientific, L7012, diluted in 1 ml of 0.9% NaCl solution) were mixed well, incubated in dark for 10 minutes, and fluorescent intensity unit was measured in a Tecan microplate reader with excitation/emission wavelengths of 485/530 nm. A standard for correlation of fluorescence units and concentration was prepared using a fluorimeter and hemocytometer under a light microscope. This standard curve was used to calculate the total cell numbers.
as §2
as §4, with “C.” for “C. Wherever required, media was supplemented with 50 mM of: sodium propionate (CH3CH2COOH, Sigma Ref. P1880), sodium butyrate (CH3(CH2)2COOH, Sigma Ref. 303410), valeric acid (CH3(CH2)3COOH, Fluka Ref. 75054). For valeric acid, the pH in modified cell media was neutralized with NaOH (Sodium hydroxide, Sigma 283060).”

CCC(=O)[O-].[Na+] [NaP, sodium propionate]
growth of C. acnes (C. acnes ATCC 6919 [1]; 30 mM, MBHI medium pH 7, anaerobic, FIG. 2): do not affect
C. acnes (log10 CFUs/ml) (C. acnes ATCC 6919 [1]; 50 mM, after 72 hours, replicates #1-#3): 7.82 log10 CFUs/ml and 8.34 log10 CFUs/ml and 8.29 log10 CFUs/ml
C. acnes growth in co-culture with S. epidermidis (C. acnes ATCC 6919 [2]): augmented
growth of S. epidermidis ([3]; 30 mM, MBHI medium pH 7, aerobic, FIG. 3): do not affect
S. epidermidis (log10 CFUs/ml) ([3]; 50 mM, after 24 hours, replicates #1-#3): 9.16 log10 CFUs/ml and 8.82 log10 CFUs/ml and 9.00 log10 CFUs/ml
growth of Malassezia restricta ([4]; 30 mM, MD medium pH 6, FIG. 1): completely inhibit
M. restricta (log10 total cell counts) ([4]; 50 mM, after 72 hours, SYTO9, starting density 1×10^7 cells/ml, replicates #1-#3): 6.95 log10 total cell counts and 6.79 log10 total cell counts and 6.82 log10 total cell counts
